Reference: the kinase profiling compilation of Christmann-Franck et al. (2016)

Tests used:
TXK (human) = TXK (human) (UniProt P42681)
PTK2 (human) = PTK2 (human) (UniProt Q05397)
ROS1 (human) = ROS1 (human) (UniProt P08922)
LTK (human) = LTK (human) (UniProt P29376)
BRSK2 (human) = BRSK2 (human) (UniProt Q8IWQ3)
PRKAA1 (human) = PRKAA1 (human) (UniProt Q13131)
RPS6KA5 KD1 (human) = RPS6KA5 KD1 (human) (UniProt O75582)
RPS6KA4 KD1 (human) = RPS6KA4 KD1 (human) (UniProt O75676)
[1] = molecular target: TYK2 JH1 catalytic (human) (UniProt P29597)
PAK2 (human) = PAK2 (human) (UniProt Q13177)
Chain of PAK2 (human) (Q13177 whole entry, looked up): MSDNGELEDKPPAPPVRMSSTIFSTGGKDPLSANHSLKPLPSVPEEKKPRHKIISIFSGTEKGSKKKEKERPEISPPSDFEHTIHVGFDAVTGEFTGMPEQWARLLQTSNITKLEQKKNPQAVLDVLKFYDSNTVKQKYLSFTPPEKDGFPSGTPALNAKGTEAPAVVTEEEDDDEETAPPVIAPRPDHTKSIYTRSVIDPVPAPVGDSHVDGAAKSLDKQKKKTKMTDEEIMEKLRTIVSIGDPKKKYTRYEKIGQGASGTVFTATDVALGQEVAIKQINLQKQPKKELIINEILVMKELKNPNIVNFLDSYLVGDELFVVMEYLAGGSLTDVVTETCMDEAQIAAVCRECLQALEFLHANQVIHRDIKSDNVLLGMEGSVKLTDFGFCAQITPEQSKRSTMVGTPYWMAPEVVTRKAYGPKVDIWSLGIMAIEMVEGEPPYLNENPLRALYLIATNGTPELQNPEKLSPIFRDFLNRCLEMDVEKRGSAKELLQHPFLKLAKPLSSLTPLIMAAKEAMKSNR

Chain of TXK (human) (P42681 whole entry, looked up): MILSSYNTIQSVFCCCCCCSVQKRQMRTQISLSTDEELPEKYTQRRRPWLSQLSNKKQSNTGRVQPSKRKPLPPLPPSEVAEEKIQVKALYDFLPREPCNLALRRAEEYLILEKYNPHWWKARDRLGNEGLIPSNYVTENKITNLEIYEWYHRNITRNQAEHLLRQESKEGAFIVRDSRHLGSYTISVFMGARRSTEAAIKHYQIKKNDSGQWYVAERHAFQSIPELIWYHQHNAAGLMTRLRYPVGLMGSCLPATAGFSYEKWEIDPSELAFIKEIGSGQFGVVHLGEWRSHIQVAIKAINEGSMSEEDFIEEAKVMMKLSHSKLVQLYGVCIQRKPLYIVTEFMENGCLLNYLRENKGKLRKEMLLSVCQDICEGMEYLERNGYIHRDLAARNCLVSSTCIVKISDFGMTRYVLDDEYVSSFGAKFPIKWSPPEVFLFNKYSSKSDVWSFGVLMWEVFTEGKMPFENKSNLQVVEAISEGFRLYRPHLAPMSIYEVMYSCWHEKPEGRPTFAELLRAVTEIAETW
Chain of RPS6KA5 KD1 (human) (O75582 whole entry, looked up): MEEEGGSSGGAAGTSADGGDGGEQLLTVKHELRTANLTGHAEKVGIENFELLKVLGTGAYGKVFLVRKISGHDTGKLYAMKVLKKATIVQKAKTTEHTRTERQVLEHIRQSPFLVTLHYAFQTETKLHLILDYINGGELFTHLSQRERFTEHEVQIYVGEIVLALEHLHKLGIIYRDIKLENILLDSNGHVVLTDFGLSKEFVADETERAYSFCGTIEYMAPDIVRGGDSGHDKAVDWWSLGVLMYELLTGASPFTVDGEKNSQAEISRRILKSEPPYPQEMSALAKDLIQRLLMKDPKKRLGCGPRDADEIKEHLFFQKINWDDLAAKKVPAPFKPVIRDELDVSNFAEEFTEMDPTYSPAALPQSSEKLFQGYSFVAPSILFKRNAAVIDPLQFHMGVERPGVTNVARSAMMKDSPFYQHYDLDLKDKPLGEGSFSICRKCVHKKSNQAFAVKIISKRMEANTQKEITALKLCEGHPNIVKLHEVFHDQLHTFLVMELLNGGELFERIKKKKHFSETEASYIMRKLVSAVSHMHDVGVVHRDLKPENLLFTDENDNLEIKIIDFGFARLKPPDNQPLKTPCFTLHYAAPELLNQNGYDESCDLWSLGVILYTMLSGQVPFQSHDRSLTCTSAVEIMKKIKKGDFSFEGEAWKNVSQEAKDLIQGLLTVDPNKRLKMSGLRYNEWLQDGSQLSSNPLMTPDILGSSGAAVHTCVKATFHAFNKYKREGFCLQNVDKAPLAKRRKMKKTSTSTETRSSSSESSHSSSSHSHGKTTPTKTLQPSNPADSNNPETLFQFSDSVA
Chain of LTK (human) (P29376 whole entry, looked up): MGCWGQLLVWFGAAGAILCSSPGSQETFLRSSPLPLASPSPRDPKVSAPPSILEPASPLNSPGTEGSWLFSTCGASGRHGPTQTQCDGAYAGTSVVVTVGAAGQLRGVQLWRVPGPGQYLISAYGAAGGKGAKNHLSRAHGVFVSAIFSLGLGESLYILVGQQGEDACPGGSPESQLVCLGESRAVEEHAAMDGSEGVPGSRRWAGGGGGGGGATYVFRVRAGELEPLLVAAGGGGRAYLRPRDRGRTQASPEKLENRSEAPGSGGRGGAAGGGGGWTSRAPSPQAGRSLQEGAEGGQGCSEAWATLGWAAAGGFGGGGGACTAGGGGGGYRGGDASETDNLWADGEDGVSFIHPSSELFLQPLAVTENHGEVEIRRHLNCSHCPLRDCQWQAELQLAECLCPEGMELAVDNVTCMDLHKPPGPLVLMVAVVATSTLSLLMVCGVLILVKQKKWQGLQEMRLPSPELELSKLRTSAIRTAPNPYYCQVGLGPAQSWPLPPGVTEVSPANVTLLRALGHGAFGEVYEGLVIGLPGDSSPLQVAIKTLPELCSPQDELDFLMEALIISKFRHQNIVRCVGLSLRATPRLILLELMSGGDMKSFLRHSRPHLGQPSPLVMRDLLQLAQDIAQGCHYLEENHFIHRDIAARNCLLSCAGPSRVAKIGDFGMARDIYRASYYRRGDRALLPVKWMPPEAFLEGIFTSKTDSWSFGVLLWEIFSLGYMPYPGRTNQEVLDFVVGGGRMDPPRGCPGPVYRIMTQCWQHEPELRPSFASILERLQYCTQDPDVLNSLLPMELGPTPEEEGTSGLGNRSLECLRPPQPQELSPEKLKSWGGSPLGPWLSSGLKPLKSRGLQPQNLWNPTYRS
Chain of RPS6KA4 KD1 (human) (O75676 whole entry, looked up): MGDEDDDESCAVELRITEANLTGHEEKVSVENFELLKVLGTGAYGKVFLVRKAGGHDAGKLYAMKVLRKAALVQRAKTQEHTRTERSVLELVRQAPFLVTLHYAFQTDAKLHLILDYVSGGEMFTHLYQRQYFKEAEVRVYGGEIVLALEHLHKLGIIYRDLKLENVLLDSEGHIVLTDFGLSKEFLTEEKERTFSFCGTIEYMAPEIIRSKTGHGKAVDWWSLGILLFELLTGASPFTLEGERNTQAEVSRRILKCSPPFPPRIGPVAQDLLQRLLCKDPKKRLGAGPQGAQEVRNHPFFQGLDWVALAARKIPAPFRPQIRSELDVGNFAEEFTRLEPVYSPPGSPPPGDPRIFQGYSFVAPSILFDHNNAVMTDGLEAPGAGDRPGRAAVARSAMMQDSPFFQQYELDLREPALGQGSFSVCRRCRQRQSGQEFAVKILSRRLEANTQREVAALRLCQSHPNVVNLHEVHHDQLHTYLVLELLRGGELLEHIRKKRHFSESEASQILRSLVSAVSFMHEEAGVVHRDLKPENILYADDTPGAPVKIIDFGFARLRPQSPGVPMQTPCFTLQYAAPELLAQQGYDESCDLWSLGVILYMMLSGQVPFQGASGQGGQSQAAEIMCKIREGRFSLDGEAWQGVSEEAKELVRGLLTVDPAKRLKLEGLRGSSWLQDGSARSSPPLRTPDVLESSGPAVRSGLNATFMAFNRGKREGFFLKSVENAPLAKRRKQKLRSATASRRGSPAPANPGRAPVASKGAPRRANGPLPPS
Chain of PRKAA1 (human) (Q13131 whole entry, looked up): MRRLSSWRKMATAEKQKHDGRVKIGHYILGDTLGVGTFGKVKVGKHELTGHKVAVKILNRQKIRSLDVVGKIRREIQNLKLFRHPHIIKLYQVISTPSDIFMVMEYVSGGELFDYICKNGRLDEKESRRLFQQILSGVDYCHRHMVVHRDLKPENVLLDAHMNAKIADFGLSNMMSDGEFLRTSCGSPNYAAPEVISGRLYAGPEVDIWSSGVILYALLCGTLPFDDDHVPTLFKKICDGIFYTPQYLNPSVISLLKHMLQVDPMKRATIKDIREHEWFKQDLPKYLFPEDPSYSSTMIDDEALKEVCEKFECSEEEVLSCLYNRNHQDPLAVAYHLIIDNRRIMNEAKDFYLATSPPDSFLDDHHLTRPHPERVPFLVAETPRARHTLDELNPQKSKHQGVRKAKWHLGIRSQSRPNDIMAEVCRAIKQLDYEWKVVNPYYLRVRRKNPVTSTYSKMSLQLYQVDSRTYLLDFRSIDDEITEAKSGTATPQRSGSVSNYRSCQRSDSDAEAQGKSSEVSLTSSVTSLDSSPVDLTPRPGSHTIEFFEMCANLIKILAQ
Chain of BRSK2 (human) (Q8IWQ3 whole entry, looked up): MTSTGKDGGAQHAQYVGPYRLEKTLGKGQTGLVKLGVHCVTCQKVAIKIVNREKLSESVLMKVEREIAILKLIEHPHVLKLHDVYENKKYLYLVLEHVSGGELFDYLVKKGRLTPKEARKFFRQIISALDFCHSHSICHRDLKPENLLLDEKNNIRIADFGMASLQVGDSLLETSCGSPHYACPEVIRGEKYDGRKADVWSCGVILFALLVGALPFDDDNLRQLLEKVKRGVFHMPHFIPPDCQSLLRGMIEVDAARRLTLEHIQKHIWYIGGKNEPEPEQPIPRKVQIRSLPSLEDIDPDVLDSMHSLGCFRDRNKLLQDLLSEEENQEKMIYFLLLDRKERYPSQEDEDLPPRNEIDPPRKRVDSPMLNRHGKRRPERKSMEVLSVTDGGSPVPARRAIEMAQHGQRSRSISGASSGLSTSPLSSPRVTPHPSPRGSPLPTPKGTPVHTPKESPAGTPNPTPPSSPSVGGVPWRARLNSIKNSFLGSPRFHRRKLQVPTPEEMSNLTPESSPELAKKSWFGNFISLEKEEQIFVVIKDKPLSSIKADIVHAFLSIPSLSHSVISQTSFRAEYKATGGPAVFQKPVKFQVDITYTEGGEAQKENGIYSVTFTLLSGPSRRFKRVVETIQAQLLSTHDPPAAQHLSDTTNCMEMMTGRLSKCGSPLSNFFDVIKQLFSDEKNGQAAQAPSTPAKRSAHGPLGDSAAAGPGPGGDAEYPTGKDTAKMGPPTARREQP

Kd (TXK (human)) [nM] | Kd (PTK2 (human)) [nM] | Kd (ROS1 (human)) [nM] | Kd (LTK (human)) [nM] | Kd (BRSK2 (human)) [nM] | Kd (PRKAA1 (human)) [nM] | Kd (RPS6KA5 KD1 (human)) [nM] | Kd (RPS6KA4 KD1 (human)) [nM] | Kd [1] [nM] | Kd (PAK2 (human)) [nM] | Structure (SMILES)
80 | – | – | – | – | – | – | – | – | – | Cc1ccc(C(=O)Nc2cccc(C(C)(C)C)c2)cc1-c1ccc(C(=O)NCC2CC2)cc1
– | 33 | 77 | 52 | 92 | 19 | 31 | 94 | 75 | 14000 | CCS(=O)(=O)Nc1ccc2c(c1)[C@H](/C(=N/c1ccc(CN3CCCCC3)cc1)c1ccccc1)C(=O)N2
